Assay results published in article PMC6204821, “Inhibitory effect of microalgae and cyanobacteria extracts on influenza virus replication and neuraminidase activity” (PeerJ, 2018).

Assays:
[1] = test system: A(H1N1)pdm09-WT (A/California/04/2009); experiment: microbe, parasite or virus in culture; type: cell-based; conditions: Influenza A virus, H1N1, MDCK, read-out: EC50 A(H1N1)pdm09-WT
[2] = test system: A(H3N2)-WT (A/Switzerland/9715293/2013); experiment: microbe, parasite or virus in culture; type: cell-based; conditions: Influenza A virus, H3N2, MDCK, read-out: EC50 A(H3N2)-WT
in vitro = conditions: dog
Experimental: One hundred microliters of 2.0 × 10^4 MDCK cells were seeded into the 96-well culture plates (flat bottom) and grown for 24 h at 37 °C in a 5% CO2 atmosphere, then, the extracts were added with a final concentration of 1 mg/mL in DMEM. […] The extracts were diluted in culture medium DMEM, the DMSO final concentration was equal to 1.0% (v/v). After 48 h of cells incubation with extracts or vehicle (DMSO), a freshly prepared XTT (Sigma) solution was added, as specified by the manufacturer’s instructions. […] The cell viability was calculated by the comparison between absorbance (A475 nm–A660 nm) from treated (A) and untreated (B) cells using the formula: A/B × 100. Tests were carried out performing three replicates (n = 3).

[3] = target: neuraminidase of B/Perth/211/2001 Yam (WT) (Influenza B virus, UniProt Q3S340); experiment: biochemical; conditions: read-out: NA Activity (%)
neuraminidase of B/Perth/211/2001 Yam (WT), sequence (Q3S340 1-466): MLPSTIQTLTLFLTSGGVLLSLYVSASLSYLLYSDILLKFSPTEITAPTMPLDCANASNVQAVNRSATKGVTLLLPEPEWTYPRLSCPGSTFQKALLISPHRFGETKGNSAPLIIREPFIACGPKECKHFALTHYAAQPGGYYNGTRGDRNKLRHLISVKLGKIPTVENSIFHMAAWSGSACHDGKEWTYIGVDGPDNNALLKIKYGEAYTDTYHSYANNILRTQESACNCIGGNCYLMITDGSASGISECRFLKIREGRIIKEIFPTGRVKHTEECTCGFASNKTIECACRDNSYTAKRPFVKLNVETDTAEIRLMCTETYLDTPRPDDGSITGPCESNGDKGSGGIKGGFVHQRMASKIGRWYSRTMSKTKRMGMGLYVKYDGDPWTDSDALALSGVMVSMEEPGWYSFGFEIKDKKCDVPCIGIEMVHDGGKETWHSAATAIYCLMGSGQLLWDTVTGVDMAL

Row | SMILES | EC50 [1] | EC50 [2] | CC50 at 48 h (in vitro) | activity at 10 pM [3] | activity at 0.0001 µM [3] | activity at 0.001 µM [3] | activity at 0.01 µM [3] | activity at 0.1 µM [3] | activity at 1 µM [3]
1 | CCC(CC)O[C@@H]1C=C(C(=O)O)C[C@H](N)[C@H]1NC(C)=O [OST-car, Oseltamivir carboxylate] | 0.012 µM | 0.032 µM | 2130 µM |  |  |  |  |  | 
2 | CCOC(=O)C1=C[C@@H](OC(CC)CC)[C@H](NC(C)=O)[C@@H](N)C1 [Oseltamivir] |  |  |  | 104% | 118% | 92% | 32% | 11% | 11%
